Experimental data taken from the supplement of paper PMC10307832.

Legend:
Test in all cases: relative viability (nuclei count vs DMSO), 5 days (fraction); higher = more cells survive
Vemurafenib + Pemetrexed = compound: CCCS(=O)(=O)Nc1ccc(F)c(C(=O)c2c[nH]c3ncc(-c4ccc(Cl)cc4)cc23)c1F [Vemurafenib] + Nc1nc2[nH]cc(CCc3ccc(C(=O)N[C@@H](CCC(=O)O)C(=O)O)cc3)c2c(=O)[nH]1 [Pemetrexed] (partner 0.2 µM)
Procedure, shortened: (§1)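 Dosing by pin tool came one day after lung cancer cell lines were seeded in 1536-well plates, using either one drug or a fixed anchor-drug dose plus five library-drug doses (not always all listed) in √10 steps. After 5 days, nuclei were counted on 4× images. Relative viability is treated-well nuclei count divided by vehicle-well nuclei count, and values are medians of duplicate plates.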

OSI-027 + Lapatinib = compound: COc1cccc2cc(-c3nc([C@H]4CC[C@H](C(=O)O)CC4)n4ncnc(N)c34)[nH]c12 [OSI-027] + CS(=O)(=O)CCNCc1ccc(-c2ccc3ncnc(Nc4ccc(OCc5cccc(F)c5)c(Cl)c4)c3c2)o1 [Lapatinib] (partner 2 µM)
Procedure, shortened: as §1

OSI-027 + Alpelisib = compound: COc1cccc2cc(-c3nc([C@H]4CC[C@H](C(=O)O)CC4)n4ncnc(N)c34)[nH]c12 [OSI-027] + Cc1nc(NC(=O)N2CCC[C@H]2C(N)=O)sc1-c1ccnc(C(C)(C)C(F)(F)F)c1 [Alpelisib] (partner 2 µM)
Procedure, shortened: as §1

Alpelisib + Linsitinib = compound: Cc1nc(NC(=O)N2CCC[C@H]2C(N)=O)sc1-c1ccnc(C(C)(C)C(F)(F)F)c1 [Alpelisib] + C[C@]1(O)C[C@@H](c2nc(-c3ccc4ccc(-c5ccccc5)nc4c3)c3c(N)nccn32)C1 [Linsitinib] (partner 1 µM)
Procedure, shortened: as §1

Cell Line	relative viability (Vemurafenib + Pemetrexed; first compound 0.03162 µM)	relative viability (Vemurafenib + Pemetrexed; first compound 0.1 µM)	relative viability (Vemurafenib + Pemetrexed; first compound 0.3162 µM)	relative viability (Vemurafenib + Pemetrexed; first compound 1 µM)	relative viability (OSI-027 + Lapatinib; first compound 0.01 µM)	relative viability (OSI-027 + Lapatinib; first compound 0.03162 µM)	relative viability (OSI-027 + Lapatinib; first compound 0.1 µM)	relative viability (OSI-027 + Lapatinib; first compound 0.3162 µM)	relative viability (OSI-027 + Lapatinib; first compound 1 µM)	relative viability (OSI-027 + Alpelisib; first compound 0.01 µM)	relative viability (OSI-027 + Alpelisib; first compound 0.03162 µM)	relative viability (OSI-027 + Alpelisib; first compound 0.1 µM)	relative viability (OSI-027 + Alpelisib; first compound 0.3162 µM)	relative viability (OSI-027 + Alpelisib; first compound 1 µM)	relative viability (Alpelisib + Linsitinib; first compound 0.04 µM)	relative viability (Alpelisib + Linsitinib; first compound 0.1265 µM)	relative viability (Alpelisib + Linsitinib; first compound 0.4 µM)	relative viability (Alpelisib + Linsitinib; first compound 1.265 µM)	relative viability (Alpelisib + Linsitinib; first compound 4 µM)
NCI-H1734	0.396	0.382	0.385	0.399	1.03	1.12	0.935	0.781	0.489	0.642	0.694	0.63	0.517	0.259	0.814	0.885	0.875	0.71	0.489
NCI-H1755	0.512	0.453	0.422	0.398	1.01	1.06	1.01	0.817	0.579	0.92	0.849	0.917	0.8	0.353	1.01	0.941	1.03	0.978	0.764
NCI-H1792	0.59	0.787	–	0.747	0.749	0.826	0.815	0.739	0.213	1.07	0.517	0.623	0.495	0.188	0.505	0.566	0.619	0.539	0.38
NCI-H1793	0.797	0.602	0.749	1.12	0.619	0.65	0.559	0.264	0.26	0.831	0.589	0.466	0.307	0.189	0.596	1.19	0.997	0.692	0.525
NCI-H1915	0.493	0.494	0.434	0.454	1.03	1.07	0.918	0.885	0.806	1.11	1.12	1.13	0.956	0.605	1.11	1.1	1.17	1.02	1.08
NCI-H1944	0.596	–	0.564	0.569	0.802	0.875	0.799	0.631	0.444	0.855	0.796	0.764	0.607	0.301	0.985	1.2	1.17	0.858	0.543
NCI-H1975	0.285	0.284	0.262	0.299	0.897	0.864	0.958	0.688	0.401	0.659	0.667	0.455	0.38	0.355	0.96	0.915	0.91	0.67	0.548
NCI-H1993	0.67	–	0.642	0.628	0.786	0.808	0.773	0.785	0.693	0.647	0.646	0.562	0.533	0.655	0.732	0.737	0.762	0.702	0.749
NCI-H2009	1.13	0.897	0.869	0.915	0.97	0.963	0.848	0.839	0.546	1.14	1.14	1.07	0.999	0.568	1.2	1.12	1.27	1.19	1.12
NCI-H2023	0.229	0.2	0.207	0.278	0.735	0.663	0.567	0.393	0.18	0.608	0.499	0.505	0.34	0.19	0.612	0.634	0.628	0.574	0.444
NCI-H2085	0.764	0.6	0.585	1.04	0.7	0.799	0.565	0.506	0.434	0.927	0.925	0.835	0.727	0.592	0.874	0.905	0.852	0.731	0.853
NCI-H2087	0.646	0.63	0.544	0.678	1.11	1.06	0.873	0.951	0.769	1.12	1.21	0.947	0.625	0.398	0.853	0.979	1.05	0.803	1.07
NCI-H2126	0.627	0.662	0.684	0.777	0.771	0.814	0.728	0.563	0.529	0.764	0.69	0.694	0.603	0.399	0.682	0.716	0.66	0.698	0.63
NCI-H2228	0.315	0.321	0.391	0.323	1.05	1.21	0.958	–	0.539	0.934	0.808	0.674	–	0.546	0.762	0.496	0.564	0.517	0.287
NCI-H2347	0.413	0.441	0.357	0.412	0.983	0.921	0.885	0.806	0.516	1.11	0.899	0.974	0.717	0.416	0.997	0.941	1.03	0.84	0.952
NCI-H2405	1.02	0.977	–	1.17	1.03	0.996	0.798	0.852	0.539	0.783	0.664	0.577	0.475	0.33	1.07	0.935	1.02	0.781	0.847
NCI-H3122	0.206	0.188	0.214	0.203	1.09	1.1	1.14	1.05	0.808	0.711	0.762	0.657	0.405	0.284	0.994	0.938	1.02	0.715	0.675
PC-3 [JPC-3]	–	–	0.92	1.25	0.452	0.454	0.412	0.327	0.298	1.06	1.03	0.986	0.802	0.43	0.948	0.974	1.03	0.883	0.933
PC-14	0.147	–	0.126	0.134	0.3	0.306	0.293	0.255	0.179	0.855	0.641	1.01	1.03	0.65	0.91	0.894	0.98	0.856	0.816
RERF-LC-KJ	0.501	0.486	0.441	0.48	0.778	0.843	0.78	0.589	0.376	0.698	0.793	0.641	0.507	0.361	0.816	0.878	0.823	0.734	0.749
SK-LU-1	0.928	0.891	0.861	0.974	0.888	0.817	0.656	0.519	0.29	1.25	0.978	0.64	0.394	0.304	1.22	1.14	1.27	0.939	1.06
SK-MES-1	0.891	–	0.858	0.92	0.481	0.435	0.371	0.316	0.253	0.898	0.841	0.811	0.534	0.337	1.13	1.04	1.22	0.939	0.99
SW 1573	0.872	0.777	0.798	0.832	0.941	1.14	1.05	0.989	0.636	0.738	0.76	0.661	0.669	0.39	0.919	0.826	0.725	0.685	0.547
